Measurements taken from patent US9913861B2 (priority 2013, dated 2018).
Counter-ions that a name gives are not always drawn.

How the values were obtained:
[1] = system: Human coxsackievirus type 9 (CA9); type: cell-based
[2] = system: Human rhinovirus type 14 (HRV14, major group); type: cell-based
[3] = system: Human herpesvirus type 1 (HSV1); type: cell-based
[4] = system: Human respiratory syncytial virus, Long strain (RSV); type: cell-based
[5] = system: herpesviruses and influenza viruses; conditions: cited from earlier work
[6] = in vivo; cited from earlier work
[7] = system: BGM, HEp-2 and HeLa cells

| Molecule | percentage plaque inhibition [1] | percentage plaque inhibition [2] | percentage plaque inhibition [3] | plaque inhibition of the individual substances [3] | percentage plaque inhibition [4] | also measured |
| --- | --- | --- | --- | --- | --- | --- |
| CN1[C@@H]2CC[C@H]1CC(OC(=O)C(CO)c1ccccc1)C2.CN1[C@@H]2CC[C@H]1CC(OC(=O)C(CO)c1ccccc1)C2.O=S(=O)(O)O (stereo partly shown) [Atropine sulphate, atropine sulphate] | 7.63/12.85% | 11.30/14.12% | 19.52/41.90% | approximately 35% | 7.74/12.36% | – |
| Cc1cc(C(C)(C)C)c(O)c(C)c1CC1=NCCN1 [OMZ, Oxymetazoline hydrochloride] | – | – | – | – | – | reduction in infectivity [2]: 50-60% |
| Nc1nc2c(ncn2COCCO)c(=O)[nH]1 [aciclovir, Aciclovir] | – | – | – | – | – | reduction in infectivity [3]: 50-60% |
| CN1[C@@H]2CC[C@H]1C[C@@H](OC(=O)C(CO)c1ccccc1)C2 (stereo partly shown) [atropine] | – | – | – | – | – | concentration at which the maximum antiviral effect is achieved [5]: 2 mM |
| NC(=O)c1ncn([C@@H]2O[C@H](CO)[C@@H](O)[C@H]2O)n1 [ribavirin, Ribavirin] | – | – | – | – | – | reduction in infectivity [4]: 50-60% |
| aconitine | 8.40/10.69% | −1.14/2.84% | 3.17/11.22% | approximately 8% | 9.01/16.56% | lethal dose [6]: approximately 5 mg; non-cell-toxic concentration (start of dilution series) [7]: 50 µg/mL |
